# From US20240027453A1, “METHOD FOR DETECTION AND QUANTITATIVE MONITORING OF INFECTIONS WITH HERPESVIRUSES” (The Trustees of Princeton University, priority 2020, published 2024)
# Where two headings read alike, the source gives them in different places.
# Tested on: HCMV
# Assay type: cell-based
# Conditions: DE
# Method: In example herpesvirus PRM assay methods shown herein, cell pellets were lysed in 2% SDS, 100 mM NaCl, 0.5 mM EDTA, 50 mM Tris, pH 8.2, and 50 μg of protein was reduced and alkylated with 25 mM TCEP and 50 mM CAM respectively for 20 min at 70° C. Proteins were then precipitated via methanol chloroform precipitation (Wessel & Flugg, Anal Biochem. 138(1):141-143, 1984), resuspended in 50 mM HEPES, pH 8.2 and digested overnight with trypsin (50:1 protein:enzyme w/w ratio). Digested peptides were desalted by SDB-RPS StageTip as previously described (Lum et al., Cell Syst., 7(6):[…], 2018; Greco et al., Methods Mol Biol 1410:39-63, 2016; Federspiel & Cristea, Methods Mol Biol., 1977:115-143, 2019).
# Peptides (1.0 μg on column) were analyzed by LC-MS/MS using a Dionex Ultimate 3000 UHPLC coupled online to an EASYSpray ion source and a Q Exactive HF. Peptides were separated on an EASYSpray C18 column (75 μm×25 cm) heated to 50° C. using a linear gradient of 5% B to 32% B over 60 min at a flow rate of 250 nL/min and were ionized at 1.7 kv. Mobile phase A consisted of 0.1% FA in H2O and mobile phase B consisted of 0.1% FA, 2.9% H2O in ACN.
# The PRM method was controlled by a peptide inclusion list with retention time windows of 6 min for selected precursor ions.
# The PRM assay was developed and analyzed using the open-source software Skyline (Maclean et al., Bioinformatics 26(7):966-968, 2010). Summed area under the curve of 3-4 transitions per peptide was used for quantitation. Targeted peptides were normalized to host protein loading control peptides. Peptide values for each sample were scaled to the average of each peptide across all runs. The average of multiple peptides was used as the inferred value for the protein measurement when more than one peptide was quantified (Federspiel et al., PLoS Biol. 17(9):e3000437. Doi: 10.1371/journal.pbio.3000437). PRM quantitation data were graphed using the Python Seaborn and Matplotlib libraries.
# MRC5 primary human fibroblasts (HFs) (ATCC CCL-171) were used as the model system for HSV-1 and HCMV infections and were cultured in complete growth medium (DMEM supplemented with 10% fetal bovine serum and 1% penicillin-streptomycin antibiotics) at 37° C. and 5% CO2. iSLK.219 cells harboring latent KSHV (a gift from Dr. Britt Glaunsinger, University of California, Berkeley) were grown in complete growth medium supplemented with 500 μg/ml hygromycin (ThermoFisher Scientific, 10687010) at 37° C. and 5% CO2. All cells were used for experiments within a maximum of 10 passages.
# Wild type HSV-1 strain 17+ (a gift from Beate Sodeik, Hannover Medical School, Hannover, Germany) was propagated as previously described (Diner et al., 2015). Briefly, PO stocks were generated by electroporating pBAC-HSV-1 into U-2 OS cells. […] In a similar manner, wild type HCMV strain AD169 was produced from BAC electroporation into HFs and working stocks were propagated by infecting HFs at a low level. In both cases, cell-associated virus was released by sonication, combined with supernatant virus, then concentrated by ultracentrifugation (20,000 rpm, 2 hours, 4° C. with SW28 swinging bucket rotor [Beckman Coulter]) over a 10% ficoll (HSV-1) or 20% sorbitol (HCMV) cushion. Virus stock titers were determined by plaque assay for HSV-1 or tissue culture infectious dose (TCID50) for HCMV and infections were performed at a multiplicity of infection (MOI) of 3.
# 12 hours prior to virus infection or reactivation, cells were treated with either the small molecule drug or DMSO/PBS control at an equivalent volume. […] For infection cycles lasting longer than 24 hours, small molecule drugs were re-added to the cell culture medium every 24 hours. Upon collection, cells were rinsed with PBS, scraped into a microcentrifuge tube, pelleted by centrifugation, and rinsed again with PBS.
compound,measurement,setting,value
"Nc1ccn(C[C@@H](CO)OCP(=O)(O)O)c(=O)n1 [CDV, cidofovir]","UL71 (P16823) protein, numerical value of heatmap FIG. 6C",timepoint 48,0.3899
same,"UL78 (P16751) protein, numerical value of heatmap FIG. 6C",timepoint 48,0.6533
same,"UL84 (P16727) protein, numerical value of heatmap FIG. 6C",timepoint 48,0.1297
same,"UL95 (P16801) protein, numerical value of heatmap FIG. 6C",timepoint 48,0.1215
same,"UL96 (P16787) protein, numerical value of heatmap FIG. 6C",timepoint 48,0.3595
same,"UL97 (P16788) protein, numerical value of heatmap FIG. 6C",timepoint 48,0.2502
same,"UL98 (P16789) protein, numerical value of heatmap FIG. 6C",timepoint 48,0.3561
same,"UL102 (P16827) protein, numerical value of heatmap FIG. 6C",timepoint 48,0.7853
same,"UL104 (P16735) protein, numerical value of heatmap FIG. 6C",timepoint 48,0.06237
same,"UL112/UL113 (P17151) protein, numerical value of heatmap FIG. 6C",timepoint 48,0.5163
same,"UL114 (P16769) protein, numerical value of heatmap FIG. 6C",timepoint 48,0.6429
same,"UL119/UL118 (P16739) protein, numerical value of heatmap FIG. 6C",timepoint 48,0.3879
same,"UL128 (P16837) protein, numerical value of heatmap FIG. 6C",timepoint 48,0.163
same,"US8 (P09730) protein, numerical value of heatmap FIG. 6C",timepoint 48,0.9091
same,"US9 (P09729) protein, numerical value of heatmap FIG. 6C",timepoint 48,0.6112
same,"US12 (P09721) protein, numerical value of heatmap FIG. 6C",timepoint 48,0.7192
same,"US13 (P09720) protein, numerical value of heatmap FIG. 6C",timepoint 48,0.7254
same,"US14 (P09719) protein, numerical value of heatmap FIG. 6C",timepoint 48,0.2849
same,"US18 (P69334) protein, numerical value of heatmap FIG. 6C",timepoint 48,0.7625
same,"US22 (P09722) protein, numerical value of heatmap FIG. 6C",timepoint 48,0.4007
same,"US23 (P09701) protein, numerical value of heatmap FIG. 6C",timepoint 48,0.4974
same,"US24 (P09700) protein, numerical value of heatmap FIG. 6C",timepoint 48,0.4753
same,"gB (P06473) protein, numerical value of heatmap FIG. 6C",timepoint 48,0.1893
same,"sp|P09710|IR01_HCMVA (P09710) protein, numerical value of heatmap FIG. 6C",timepoint 48,0.2164
same,"CVC2 (P16726) protein, numerical value of heatmap FIG. 6C",timepoint 72,0.2298
same,"DBP (P17147) protein, numerical value of heatmap FIG. 6C",timepoint 72,0.7802
same,"HELI (P16736) protein, numerical value of heatmap FIG. 6C",timepoint 72,0.7131
same,"NEC1 (P16794) protein, numerical value of heatmap FIG. 6C",timepoint 72,0.2456
same,"NEC2 (P16791) protein, numerical value of heatmap FIG. 6C",timepoint 72,0.6919
same,"RIR1 (P16782) protein, numerical value of heatmap FIG. 6C",timepoint 72,0.443
same,"TRM1 (P16724) protein, numerical value of heatmap FIG. 6C",timepoint 72,0.5444
same,"UL4 (P17146) protein, numerical value of heatmap FIG. 6C",timepoint 72,0.08145
same,"UL26 (P16762) protein, numerical value of heatmap FIG. 6C",timepoint 72,0.4973
same,"UL32 (P08318) protein, numerical value of heatmap FIG. 6C",timepoint 72,0.2303
same,"UL34 (P16812) protein, numerical value of heatmap FIG. 6C",timepoint 72,0.5754
same,"UL35 (P16766) protein, numerical value of heatmap FIG. 6C",timepoint 72,0.3346
same,"UL38 (P16779) protein, numerical value of heatmap FIG. 6C",timepoint 72,0.9343
same,"UL44 (P16790) protein, numerical value of heatmap FIG. 6C",timepoint 72,0.5197
same,"UL48 (P16785) protein, numerical value of heatmap FIG. 6C",timepoint 72,0.4665
same,"UL54 (P08546) protein, numerical value of heatmap FIG. 6C",timepoint 72,1.149
same,"UL71 (P16823) protein, numerical value of heatmap FIG. 6C",timepoint 72,0.768
same,"UL78 (P16751) protein, numerical value of heatmap FIG. 6C",timepoint 72,1.048
same,"UL84 (P16727) protein, numerical value of heatmap FIG. 6C",timepoint 72,0.3948
same,"UL95 (P16801) protein, numerical value of heatmap FIG. 6C",timepoint 72,0.3335
same,"UL96 (P16787) protein, numerical value of heatmap FIG. 6C",timepoint 72,0.5111
same,"UL97 (P16788) protein, numerical value of heatmap FIG. 6C",timepoint 72,0.5258
same,"UL98 (P16789) protein, numerical value of heatmap FIG. 6C",timepoint 72,0.6741
same,"UL102 (P16827) protein, numerical value of heatmap FIG. 6C",timepoint 72,1.111
same,"UL104 (P16735) protein, numerical value of heatmap FIG. 6C",timepoint 72,0.4852
same,"UL112/UL113 (P17151) protein, numerical value of heatmap FIG. 6C",timepoint 72,0.7131
same,"UL114 (P16769) protein, numerical value of heatmap FIG. 6C",timepoint 72,1.008
